Assay results from US20150290612A1 (priority 2012, published 2015).

Molecular target: Acetylcholinesterase (AChE) (Electrophorus electricus, UniProt O42275)
Type: biochemical

Chain of Acetylcholinesterase (AChE) (O42275 24-633): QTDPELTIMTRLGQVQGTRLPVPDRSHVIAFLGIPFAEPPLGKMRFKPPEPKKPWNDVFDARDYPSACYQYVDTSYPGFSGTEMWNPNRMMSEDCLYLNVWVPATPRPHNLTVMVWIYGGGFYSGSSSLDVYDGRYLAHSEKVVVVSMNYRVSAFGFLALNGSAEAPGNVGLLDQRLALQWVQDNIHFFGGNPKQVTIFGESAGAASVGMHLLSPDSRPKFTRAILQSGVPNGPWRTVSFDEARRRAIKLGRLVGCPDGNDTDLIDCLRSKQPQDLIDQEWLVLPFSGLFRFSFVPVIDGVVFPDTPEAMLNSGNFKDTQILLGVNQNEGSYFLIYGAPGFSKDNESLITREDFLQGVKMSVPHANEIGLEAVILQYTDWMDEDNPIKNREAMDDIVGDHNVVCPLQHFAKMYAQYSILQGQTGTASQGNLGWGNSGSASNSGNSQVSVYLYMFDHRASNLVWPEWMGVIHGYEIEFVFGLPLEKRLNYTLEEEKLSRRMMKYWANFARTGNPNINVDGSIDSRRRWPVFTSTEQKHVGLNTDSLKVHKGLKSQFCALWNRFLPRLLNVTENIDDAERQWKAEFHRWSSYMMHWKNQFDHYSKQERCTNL

Row | Structure (SMILES) | Interference with analysis of organophosphates
1 | CCNc1nc(Cl)nc(NC(C)C)n1 [atrazine] | no interference
2 | CCNc1nc(Cl)nc(NCC)n1 [simazine] | no interference
